Results: ChEMBL document CHEMBL1132745, “Diphenylsulfone muscarinic antagonists: piperidine derivatives with high M2 selectivity and improved potency” (Bioorg Med Chem Lett, 2000)

How the values were obtained:
[1] = target: T1, Muscarinic acetylcholine receptor M2 (Homo sapiens, UniProt P08172); assay: Binding affinity against Muscarinic acetylcholine receptor M2
T1 sequence (P08172 whole entry): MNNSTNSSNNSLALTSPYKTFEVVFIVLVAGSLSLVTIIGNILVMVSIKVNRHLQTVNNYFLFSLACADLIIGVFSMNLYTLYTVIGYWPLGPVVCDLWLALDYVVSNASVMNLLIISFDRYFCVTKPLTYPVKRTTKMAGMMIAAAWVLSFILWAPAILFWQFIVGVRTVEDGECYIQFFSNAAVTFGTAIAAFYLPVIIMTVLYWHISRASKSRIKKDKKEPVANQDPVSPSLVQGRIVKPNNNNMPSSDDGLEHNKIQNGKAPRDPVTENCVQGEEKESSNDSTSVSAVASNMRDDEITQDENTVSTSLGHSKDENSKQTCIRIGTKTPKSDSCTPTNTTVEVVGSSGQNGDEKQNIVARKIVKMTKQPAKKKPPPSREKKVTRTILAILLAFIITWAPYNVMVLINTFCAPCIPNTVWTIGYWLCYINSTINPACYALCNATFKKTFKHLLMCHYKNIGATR

[2] = target: T2, Muscarinic acetylcholine receptor M5 (Homo sapiens, UniProt P08912); assay: The compound was tested for the binding affinity against Muscarinic acetylcholine receptor M5
T2 sequence (P08912 whole entry): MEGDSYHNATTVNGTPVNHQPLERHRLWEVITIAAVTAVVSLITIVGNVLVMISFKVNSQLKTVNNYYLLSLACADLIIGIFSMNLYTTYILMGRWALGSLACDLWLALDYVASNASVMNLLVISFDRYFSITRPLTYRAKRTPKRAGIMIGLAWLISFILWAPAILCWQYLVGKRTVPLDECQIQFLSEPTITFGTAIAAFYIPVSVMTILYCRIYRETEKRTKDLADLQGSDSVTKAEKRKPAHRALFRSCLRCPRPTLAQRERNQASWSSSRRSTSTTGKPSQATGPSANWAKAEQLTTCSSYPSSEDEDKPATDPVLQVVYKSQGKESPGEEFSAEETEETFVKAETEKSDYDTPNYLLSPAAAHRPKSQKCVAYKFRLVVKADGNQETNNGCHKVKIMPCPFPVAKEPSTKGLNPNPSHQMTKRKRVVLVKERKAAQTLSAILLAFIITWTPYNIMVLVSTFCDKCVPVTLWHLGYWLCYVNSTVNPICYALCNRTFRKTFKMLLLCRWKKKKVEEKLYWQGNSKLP

[3] = target: T3, Muscarinic acetylcholine receptor M1 (Homo sapiens, UniProt P11229); assay: Binding affinity against Muscarinic acetylcholine receptor M1
T3 sequence (P11229 whole entry): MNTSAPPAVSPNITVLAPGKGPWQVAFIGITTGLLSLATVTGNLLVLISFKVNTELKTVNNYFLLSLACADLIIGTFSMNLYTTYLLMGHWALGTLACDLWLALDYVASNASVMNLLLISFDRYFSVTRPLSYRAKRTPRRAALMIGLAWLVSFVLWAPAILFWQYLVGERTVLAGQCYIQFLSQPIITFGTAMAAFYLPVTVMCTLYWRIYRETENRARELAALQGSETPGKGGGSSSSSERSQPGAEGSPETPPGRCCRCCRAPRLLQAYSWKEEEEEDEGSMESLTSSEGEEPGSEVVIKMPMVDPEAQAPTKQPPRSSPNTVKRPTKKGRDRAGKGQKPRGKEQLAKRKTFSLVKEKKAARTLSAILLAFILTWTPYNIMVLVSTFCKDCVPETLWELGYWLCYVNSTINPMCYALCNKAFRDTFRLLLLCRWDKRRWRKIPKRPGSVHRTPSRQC

[4] = target: Muscarinic acetylcholine receptor M3 (Homo sapiens, UniProt P20309); assay: Binding affinity against Muscarinic acetylcholine receptor M3
Sequence of Muscarinic acetylcholine receptor M3 (P20309 whole entry): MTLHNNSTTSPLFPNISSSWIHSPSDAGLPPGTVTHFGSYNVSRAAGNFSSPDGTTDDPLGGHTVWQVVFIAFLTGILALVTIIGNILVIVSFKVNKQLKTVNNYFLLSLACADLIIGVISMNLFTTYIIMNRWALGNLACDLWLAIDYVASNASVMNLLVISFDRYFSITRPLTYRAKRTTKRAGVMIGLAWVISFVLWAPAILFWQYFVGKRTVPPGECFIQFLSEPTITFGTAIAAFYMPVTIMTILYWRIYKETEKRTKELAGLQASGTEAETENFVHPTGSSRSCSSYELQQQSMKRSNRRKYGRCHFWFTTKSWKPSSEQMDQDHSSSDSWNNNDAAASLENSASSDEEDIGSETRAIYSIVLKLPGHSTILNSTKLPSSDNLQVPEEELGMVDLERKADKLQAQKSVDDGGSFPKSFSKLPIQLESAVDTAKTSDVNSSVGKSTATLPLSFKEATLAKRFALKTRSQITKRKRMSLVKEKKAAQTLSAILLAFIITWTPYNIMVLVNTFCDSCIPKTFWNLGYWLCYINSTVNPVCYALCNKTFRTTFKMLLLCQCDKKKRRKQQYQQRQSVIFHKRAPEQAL

[5] = target: T4, Muscarinic acetylcholine receptor M4 (Homo sapiens, UniProt P08173); assay: Binding affinity against Muscarinic acetylcholine receptor M4
T4 sequence (P08173 whole entry): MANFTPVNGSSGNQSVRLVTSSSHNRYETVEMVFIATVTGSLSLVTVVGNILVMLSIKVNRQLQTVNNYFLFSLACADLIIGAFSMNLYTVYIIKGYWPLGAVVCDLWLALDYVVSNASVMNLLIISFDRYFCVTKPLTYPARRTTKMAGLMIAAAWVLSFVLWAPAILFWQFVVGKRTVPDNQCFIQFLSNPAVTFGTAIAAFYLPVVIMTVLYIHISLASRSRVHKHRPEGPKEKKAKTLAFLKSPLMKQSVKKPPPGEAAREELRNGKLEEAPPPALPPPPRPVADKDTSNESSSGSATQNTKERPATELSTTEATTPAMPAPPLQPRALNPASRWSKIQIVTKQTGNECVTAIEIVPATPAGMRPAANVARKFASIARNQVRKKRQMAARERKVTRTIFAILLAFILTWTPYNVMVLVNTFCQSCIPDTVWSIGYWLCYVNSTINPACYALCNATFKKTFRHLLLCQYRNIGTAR

| Ki [1] | Ki [2] | Ki [3] | Ki [4] | Ki [5] | SMILES |
| --- | --- | --- | --- | --- | --- |
| 2.78 nM | 309 nM | 112 nM | 29.4 nM | 14.8 nM | COc1ccc([S@@+]([O-])c2ccc(C(C#N)N3CCN(C4CCCCC4)CC3)cc2)cc1 (some centres not stated) |
| 7.67 nM |  | 113 nM | 37 nM | 12.7 nM | COc1ccc([S@@+]([O-])c2ccc(C(C#N)C3CCN(C4CCCCC4)CC3)cc2)cc1 (some centres not stated) |
| 17.3 nM |  | 253 nM |  | 18.4 nM | COc1ccc([S@+]([O-])c2ccc(C(C#N)N3CCN(C4CCCCC4)CC3)cc2)cc1 (some centres not stated) |
| 3.58 nM |  | 104 nM | 27.8 nM | 17.9 nM | COc1ccc([S@@+]([O-])c2ccc(C(=O)C3CCN(C4CCCCC4)CC3)cc2)cc1 |
| 0.03 nM |  | 0.68 nM | 0.13 nM | 0.09 nM | C=C(c1ccc([S@@+]([O-])c2ccc(OC)cc2)cc1)C1CCN(C2CCCCC2)CC1 |
| 7.14 nM |  | 136 nM | 58.8 nM | 45.1 nM | COc1ccc([S@+]([O-])c2ccc(C(C#N)C3CCN(C4CCCCC4)CC3)cc2)cc1 (some centres not stated) |
| 10.8 nM |  | 69.5 nM | 20.1 nM | 15.2 nM | COc1ccc([S@+]([O-])c2ccc(C(=O)C3CCN(C4CCCCC4)CC3)cc2)cc1 |
| 0.057 nM |  | 2.14 nM | 0.38 nM | 0.32 nM | C=C(c1ccc([S@+]([O-])c2ccc(OC)cc2)cc1)C1CCN(C2CCCCC2)CC1 |
| 1 nM |  | 6 nM | 0.97 nM | 2.2 nM | COc1ccc([S+]([O-])c2ccc(C(C)N3CCN(C4CCCCC4)CC3)cc2)cc1 (configuration not stated) |
| 1.3 nM |  | 16.4 nM |  |  | COc1ccc(S(=O)(=O)c2ccc(C(C#N)C3CCN(C4CCCCC4)CC3)cc2)cc1 (configuration not stated) |
| 0.37 nM |  | 4.4 nM |  |  | C=C(c1ccc(Sc2ccc(OC)cc2)cc1)C1CCN(C2CCCCC2)CC1 |
| 0.14 nM | 1.66 nM | 0.53 nM | 0.16 nM | 0.07 nM | COc1ccc([S+]([O-])c2ccc(C(C)C3CCN(C4CCCCC4)CC3)cc2)cc1 (configuration not stated) |
| 0.17 nM |  | 2.8 nM | 0.48 nM | 0.33 nM | C=C(c1ccc(S(=O)(=O)c2ccc(OC)cc2)cc1)C1CCN(C2CCCCC2)CC1 |
| 3.07 nM |  | 31.1 nM | 13.8 nM | 9.05 nM | COc1ccc(S(=O)(=O)c2ccc(C(=O)C3CCN(C4CCCCC4)CC3)cc2)cc1 |
| 7.3 nM |  | 71.8 nM | 6.8 nM | 18.6 nM | COc1ccc(S(=O)(=O)c2ccc(C(C#N)N3CCN(C4CCCCC4)CC3)cc2)cc1 (configuration not stated) |
